Experiment [1] has as its target T1, Sentrin-specific protease 8 (Homo sapiens, UniProt Q96LD8).
T1 sequence (Q96LD8 whole entry): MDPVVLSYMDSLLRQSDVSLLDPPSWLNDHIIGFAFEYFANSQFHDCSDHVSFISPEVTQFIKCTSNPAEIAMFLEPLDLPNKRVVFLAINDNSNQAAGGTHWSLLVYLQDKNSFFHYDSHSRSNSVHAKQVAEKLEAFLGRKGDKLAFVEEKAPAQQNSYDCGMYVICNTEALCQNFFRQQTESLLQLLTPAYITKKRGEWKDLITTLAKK
Put plainly: inhibition of human SENP8 cleavage activity – biochemical, luminescence, SAR follow-up (AID 504501). It is filed as functional.

For another experiment, the target named is T2, Caspase-3 (Homo sapiens, UniProt P42574).
T2 sequence (P42574 whole entry): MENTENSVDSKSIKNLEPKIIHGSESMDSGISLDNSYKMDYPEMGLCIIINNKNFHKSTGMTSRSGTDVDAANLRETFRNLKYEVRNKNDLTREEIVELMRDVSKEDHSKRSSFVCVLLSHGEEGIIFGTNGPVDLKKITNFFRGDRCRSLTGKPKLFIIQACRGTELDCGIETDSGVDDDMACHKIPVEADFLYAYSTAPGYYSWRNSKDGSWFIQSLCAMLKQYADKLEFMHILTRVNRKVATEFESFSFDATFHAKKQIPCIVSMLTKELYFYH
Put plainly: SAR Analysis of small molecule inhibitors of Sentrin-specific proteases (SENPs) using a Caspase-3 Selectivity assay. [Related pubchem assays (depositor defined):AID2540, AID2599, AID434973, AID489001]. It counts as functional.

The target in experiment [2] is T3, Sentrin-specific protease 6 (Homo sapiens, UniProt Q9GZR1).
T3 sequence (Q9GZR1 whole entry): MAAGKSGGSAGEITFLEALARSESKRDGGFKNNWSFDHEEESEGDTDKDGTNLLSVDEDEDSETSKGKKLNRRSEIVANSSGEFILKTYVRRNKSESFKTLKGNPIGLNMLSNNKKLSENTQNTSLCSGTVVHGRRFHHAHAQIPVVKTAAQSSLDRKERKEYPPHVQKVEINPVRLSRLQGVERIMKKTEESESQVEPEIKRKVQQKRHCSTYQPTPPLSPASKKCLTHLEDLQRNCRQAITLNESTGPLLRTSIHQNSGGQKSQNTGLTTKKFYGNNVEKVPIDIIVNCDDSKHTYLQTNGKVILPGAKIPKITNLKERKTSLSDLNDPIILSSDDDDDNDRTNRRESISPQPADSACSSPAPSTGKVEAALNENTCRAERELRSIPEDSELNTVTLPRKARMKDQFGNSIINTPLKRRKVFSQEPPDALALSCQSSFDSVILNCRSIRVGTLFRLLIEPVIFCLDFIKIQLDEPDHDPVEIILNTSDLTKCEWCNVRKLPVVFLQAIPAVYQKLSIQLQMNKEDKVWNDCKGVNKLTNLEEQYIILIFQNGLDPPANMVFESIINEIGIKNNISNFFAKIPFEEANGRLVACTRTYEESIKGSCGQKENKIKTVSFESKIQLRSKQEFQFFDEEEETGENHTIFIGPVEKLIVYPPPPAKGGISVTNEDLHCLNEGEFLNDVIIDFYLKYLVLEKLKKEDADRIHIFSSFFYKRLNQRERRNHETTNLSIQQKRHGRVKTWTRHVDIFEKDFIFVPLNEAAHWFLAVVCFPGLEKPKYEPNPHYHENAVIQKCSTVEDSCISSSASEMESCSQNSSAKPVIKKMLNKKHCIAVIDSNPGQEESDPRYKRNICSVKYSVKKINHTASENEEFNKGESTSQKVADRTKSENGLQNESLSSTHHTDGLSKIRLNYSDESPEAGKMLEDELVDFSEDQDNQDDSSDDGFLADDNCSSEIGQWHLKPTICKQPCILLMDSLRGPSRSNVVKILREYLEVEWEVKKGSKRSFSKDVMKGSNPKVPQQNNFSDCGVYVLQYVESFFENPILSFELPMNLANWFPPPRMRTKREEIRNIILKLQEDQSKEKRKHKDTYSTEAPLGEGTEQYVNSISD
Kind of experiment: SAR Analysis of small molecule inhibitors of Sentrin-specific protease 6 (SENP6) using a Luminescent assay. [Related pubchem assays (depositor defined):AID2582, AID2599]. It is filed as functional.

For experiment [3], the target named is T4, Sentrin-specific protease 7 (Homo sapiens, UniProt Q9BQF6).
T4 sequence (Q9BQF6 whole entry): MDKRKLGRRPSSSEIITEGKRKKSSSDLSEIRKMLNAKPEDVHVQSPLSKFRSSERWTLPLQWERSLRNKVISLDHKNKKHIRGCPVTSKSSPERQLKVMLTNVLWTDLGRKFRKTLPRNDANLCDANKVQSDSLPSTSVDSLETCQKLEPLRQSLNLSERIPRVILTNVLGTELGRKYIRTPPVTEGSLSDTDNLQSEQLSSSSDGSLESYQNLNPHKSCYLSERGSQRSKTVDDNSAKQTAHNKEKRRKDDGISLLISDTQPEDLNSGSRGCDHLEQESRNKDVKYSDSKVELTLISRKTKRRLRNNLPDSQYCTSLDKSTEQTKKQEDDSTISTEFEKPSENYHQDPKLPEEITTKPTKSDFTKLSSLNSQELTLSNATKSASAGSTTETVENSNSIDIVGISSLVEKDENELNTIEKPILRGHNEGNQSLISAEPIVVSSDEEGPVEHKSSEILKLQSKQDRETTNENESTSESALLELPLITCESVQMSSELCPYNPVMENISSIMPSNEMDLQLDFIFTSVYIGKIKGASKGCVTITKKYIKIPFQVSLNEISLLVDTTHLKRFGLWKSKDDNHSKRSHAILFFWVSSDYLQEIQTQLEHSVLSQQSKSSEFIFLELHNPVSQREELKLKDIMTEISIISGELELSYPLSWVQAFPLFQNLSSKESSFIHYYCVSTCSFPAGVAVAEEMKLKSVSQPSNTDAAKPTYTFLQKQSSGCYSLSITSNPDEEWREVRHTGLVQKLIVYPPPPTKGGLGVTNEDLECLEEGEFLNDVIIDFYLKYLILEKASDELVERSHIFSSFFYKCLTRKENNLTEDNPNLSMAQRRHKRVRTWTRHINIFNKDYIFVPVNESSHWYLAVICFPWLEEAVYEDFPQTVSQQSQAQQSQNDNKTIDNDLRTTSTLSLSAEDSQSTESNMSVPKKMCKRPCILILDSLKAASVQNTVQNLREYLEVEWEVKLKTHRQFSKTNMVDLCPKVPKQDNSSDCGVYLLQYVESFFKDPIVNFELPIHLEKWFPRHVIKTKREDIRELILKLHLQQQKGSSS
Kind of experiment: inhibition of human SENP7 cleavage activity – biochemical, luminescence, SAR follow-up (AID 504497). It is filed as functional.

In experiment [4] the test system is Candida albicans. Put plainly: fluconazole-resistant Candida strain growth inhibitors – CaCi-8 strain, dry powder, set 4, dose response (AID 488950). It is filed as functional, organism-based.
The subject of experiment [5] is Candida albicans. Put plainly: C. albicans growth inhibition with fluconazole – CaCi-2 strain, Alamar Blue, dry powder, set 4, dose response (AID 488943). It counts as functional, organism-based.
Another experiment concerns NIH3T3. Put plainly: NIH-3T3 viability with fluconazole co-treatment – cell-based, Alamar Blue, dry powder, set 2, cytotoxicity control for antifungal resistance reversal project, dose response (AID 488911). It is filed as functional. The note with it: Mus musculus.
Experiment [6] has as its system Candida albicans. Put plainly: resistant Candida growth with fluconazole co-treatment – CaCi-8 strain, Alamar Blue, dry powder, set 2, dose response (AID 488909). It is filed as functional, organism-based.
For experiment [7], the system named is Candida albicans. Put plainly: single-agent toxicity toward C. albicans – CaCi-2 strain, no fluconazole, dry powder, set 4, counter-screen for reversing antifungal drug resistance, dose response (AID 488932). It counts as functional, organism-based.
For experiment [8], the target named is DNA dC->dU-editing enzyme APOBEC-3A (Homo sapiens, UniProt P31941). Put plainly: A3A deaminase inhibition for selectivity – biochemical, dose response (AID 504722). It is filed as functional.
The target of experiment [9] is DNA dC->dU-editing enzyme APOBEC-3G (Homo sapiens, UniProt Q9HC16). Kind of experiment: Dose Response confirmation of small molecule APOBEC3G DNA Deaminase Inhibitors via a fluorescence-based single-stranded DNA deaminase assay. [Related pubchem assays (depositor defined):AID493012, AID493028]. It counts as functional.
The target in another experiment is Apelin receptor (Homo sapiens, UniProt P35414). Kind of experiment: apelin receptor antagonists, arrestin read-out – cell-based, luminescent, enzyme-fragment complementation, selectivity assay for CCR6 antagonist project, SAR follow-up (AID 588359). It is filed as functional.
Experiment [10] addresses C-X-C chemokine receptor type 5 (Homo sapiens, UniProt P32302). Put plainly: inhibition of CXCL13-driven CXCR5 beta-arrestin recruitment – cell-based, luminescence, CHO-K1 PathHunter, selectivity assay for CCR6 antagonist project, SAR follow-up (AID 540340). It counts as functional.
In experiment [11] the target is C-C chemokine receptor type 6 (Homo sapiens, UniProt P51684). Kind of experiment: analog antagonism of CCR6 beta-arrestin signaling – cell-based, luminescent beta-arrestin readout, SAR follow-up (AID 540334). It is filed as functional.
Experiment [12] deals with Mitogen-activated protein kinase 10 (Homo sapiens, UniProt P53779). Kind of experiment: Dose response biochemical screening assay for inhibitors of c-Jun N-Terminal Kinase 3 (JNK3). [Related pubchem assays: 746 ].
The target in experiment [13] is T5, Cyclin-dependent kinase 5/CDK5 activator 1 (Homo sapiens, UniProt Q00535). Put plainly: blockade of human CDK5 activity – biochemical, cherry-picked samples, set 2, dose response (AID 504545).
The target of experiment [14] is Glycogen synthase kinase-3 alpha (Homo sapiens, UniProt P49840). Kind of experiment: Inhibition of Human GSK-3 alpha Activity Measured in Biochemical System Using Microfluidics - 2063-06_Inhibitor_Dose_DryPowder_Activity_Set2. [Related pubchem assays (depositor defined):AID2709].
For experiment [15], the target named is Glycogen synthase kinase-3 beta (Homo sapiens, UniProt P49841). Kind of experiment: Inhibition of Human GSK-3 beta Activity Measured in Biochemical System Using Microfluidics - 2063-05_Inhibitor_Dose_DryPowder_Activity_Set2. [Related pubchem assays (depositor defined):AID2709].
In experiment [16] the target is T5, Cyclin-dependent kinase 5/CDK5 activator 1. Kind of experiment: human CDK5 activity blockade – biochemical, microfluidic mobility shift, dry powder, selectivity assay for GSK-3 alpha inhibitor project, dose response (AID 588430).
Experiment [17] concerns the target Photoreceptor-specific nuclear receptor (Homo sapiens, UniProt Q9Y5X4). It counts as functional, cell-based.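 Also: CHO-S cells with Gal4-NCOR and VP16-NR2E3 two-hybrid luciferase reporter.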

Activity calls are given as the source filed them.

T5 sequence (Q00535 whole entry): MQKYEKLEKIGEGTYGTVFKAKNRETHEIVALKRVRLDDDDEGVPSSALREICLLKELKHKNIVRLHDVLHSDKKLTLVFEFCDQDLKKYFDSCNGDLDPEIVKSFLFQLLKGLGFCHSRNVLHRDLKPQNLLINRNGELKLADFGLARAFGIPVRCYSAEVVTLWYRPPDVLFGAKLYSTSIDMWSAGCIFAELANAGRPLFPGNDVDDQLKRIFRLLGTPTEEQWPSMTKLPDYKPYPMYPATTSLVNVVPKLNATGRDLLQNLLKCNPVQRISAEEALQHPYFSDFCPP
T5 sequence (Q15078 whole entry, further chain): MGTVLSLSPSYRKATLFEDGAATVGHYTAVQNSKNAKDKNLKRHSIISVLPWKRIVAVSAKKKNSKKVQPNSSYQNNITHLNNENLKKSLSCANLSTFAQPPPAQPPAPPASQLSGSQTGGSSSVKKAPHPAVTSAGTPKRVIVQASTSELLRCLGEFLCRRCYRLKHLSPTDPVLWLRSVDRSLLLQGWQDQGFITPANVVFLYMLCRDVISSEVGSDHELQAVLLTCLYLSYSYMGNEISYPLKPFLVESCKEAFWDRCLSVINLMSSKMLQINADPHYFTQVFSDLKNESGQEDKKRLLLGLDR
Sequence of Glycogen synthase kinase-3 alpha (P49840 whole entry): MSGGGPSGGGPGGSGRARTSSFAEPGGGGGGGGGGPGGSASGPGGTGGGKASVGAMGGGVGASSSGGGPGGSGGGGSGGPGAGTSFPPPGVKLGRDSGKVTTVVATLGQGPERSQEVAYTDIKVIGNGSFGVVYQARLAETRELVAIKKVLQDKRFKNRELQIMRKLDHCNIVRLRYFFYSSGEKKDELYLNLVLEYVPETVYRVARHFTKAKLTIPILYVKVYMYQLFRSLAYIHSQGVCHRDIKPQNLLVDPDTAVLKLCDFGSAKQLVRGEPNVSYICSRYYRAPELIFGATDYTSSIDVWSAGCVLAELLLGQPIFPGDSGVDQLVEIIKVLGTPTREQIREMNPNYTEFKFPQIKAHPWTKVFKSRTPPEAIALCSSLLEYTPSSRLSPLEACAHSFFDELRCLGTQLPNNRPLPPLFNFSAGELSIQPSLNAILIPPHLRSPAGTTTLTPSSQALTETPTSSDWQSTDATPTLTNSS
Sequence of DNA dC->dU-editing enzyme APOBEC-3G (Q9HC16 whole entry, the tested form may be a part): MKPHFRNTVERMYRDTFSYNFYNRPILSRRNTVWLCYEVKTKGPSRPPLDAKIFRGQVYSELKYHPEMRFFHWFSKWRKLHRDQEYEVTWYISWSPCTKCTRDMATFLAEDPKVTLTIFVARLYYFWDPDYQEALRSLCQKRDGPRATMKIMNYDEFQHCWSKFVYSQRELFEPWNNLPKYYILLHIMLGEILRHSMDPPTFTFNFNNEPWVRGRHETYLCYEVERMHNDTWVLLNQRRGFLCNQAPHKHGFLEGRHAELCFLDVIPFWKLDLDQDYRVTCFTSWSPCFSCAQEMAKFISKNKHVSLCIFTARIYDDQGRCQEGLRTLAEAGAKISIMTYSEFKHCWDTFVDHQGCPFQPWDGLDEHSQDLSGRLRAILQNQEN
Sequence of Photoreceptor-specific nuclear receptor (Q9Y5X4 whole entry, the tested form may be a part): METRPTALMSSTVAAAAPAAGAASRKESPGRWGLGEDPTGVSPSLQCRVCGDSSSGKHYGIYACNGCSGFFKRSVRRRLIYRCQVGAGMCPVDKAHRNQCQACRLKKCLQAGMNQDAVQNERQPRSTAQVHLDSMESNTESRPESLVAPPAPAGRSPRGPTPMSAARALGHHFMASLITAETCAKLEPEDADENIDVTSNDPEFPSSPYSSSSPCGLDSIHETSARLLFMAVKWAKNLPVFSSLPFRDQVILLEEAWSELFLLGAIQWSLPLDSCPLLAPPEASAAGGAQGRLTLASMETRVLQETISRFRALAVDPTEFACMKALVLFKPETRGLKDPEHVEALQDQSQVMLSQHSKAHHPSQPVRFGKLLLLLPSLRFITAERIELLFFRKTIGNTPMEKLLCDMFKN
Sequence of Mitogen-activated protein kinase 10 (P53779 whole entry): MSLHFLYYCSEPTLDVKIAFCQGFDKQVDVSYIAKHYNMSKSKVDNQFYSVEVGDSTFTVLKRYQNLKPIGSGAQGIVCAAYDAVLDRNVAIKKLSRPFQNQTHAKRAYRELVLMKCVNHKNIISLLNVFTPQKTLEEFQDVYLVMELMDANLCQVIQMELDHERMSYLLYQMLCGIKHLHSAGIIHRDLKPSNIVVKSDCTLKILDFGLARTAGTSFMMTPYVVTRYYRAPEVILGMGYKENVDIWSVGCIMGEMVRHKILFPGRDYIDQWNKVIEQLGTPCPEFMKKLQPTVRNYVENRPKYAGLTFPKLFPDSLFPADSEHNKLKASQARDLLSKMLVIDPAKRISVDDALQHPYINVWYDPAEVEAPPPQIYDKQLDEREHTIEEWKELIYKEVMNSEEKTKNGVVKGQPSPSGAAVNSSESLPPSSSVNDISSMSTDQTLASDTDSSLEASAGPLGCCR
Sequence of DNA dC->dU-editing enzyme APOBEC-3A (P31941 whole entry): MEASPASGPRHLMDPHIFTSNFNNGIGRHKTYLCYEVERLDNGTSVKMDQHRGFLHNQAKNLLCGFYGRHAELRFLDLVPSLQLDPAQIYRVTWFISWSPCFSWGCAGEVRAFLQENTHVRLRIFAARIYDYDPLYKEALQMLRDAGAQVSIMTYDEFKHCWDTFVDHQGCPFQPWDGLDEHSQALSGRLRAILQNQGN
Sequence of C-X-C chemokine receptor type 5 (P32302 whole entry): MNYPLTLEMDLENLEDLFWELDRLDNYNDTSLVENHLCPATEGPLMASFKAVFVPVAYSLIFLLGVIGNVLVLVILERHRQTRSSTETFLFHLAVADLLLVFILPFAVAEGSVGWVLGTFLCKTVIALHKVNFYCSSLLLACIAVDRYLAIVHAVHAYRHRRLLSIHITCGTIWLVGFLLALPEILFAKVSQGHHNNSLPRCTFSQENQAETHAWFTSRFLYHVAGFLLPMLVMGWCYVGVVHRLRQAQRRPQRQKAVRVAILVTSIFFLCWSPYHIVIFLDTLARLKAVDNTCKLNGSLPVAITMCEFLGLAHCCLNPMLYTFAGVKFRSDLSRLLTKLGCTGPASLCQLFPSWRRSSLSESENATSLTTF
Sequence of Apelin receptor (P35414 whole entry, the tested form may be a part): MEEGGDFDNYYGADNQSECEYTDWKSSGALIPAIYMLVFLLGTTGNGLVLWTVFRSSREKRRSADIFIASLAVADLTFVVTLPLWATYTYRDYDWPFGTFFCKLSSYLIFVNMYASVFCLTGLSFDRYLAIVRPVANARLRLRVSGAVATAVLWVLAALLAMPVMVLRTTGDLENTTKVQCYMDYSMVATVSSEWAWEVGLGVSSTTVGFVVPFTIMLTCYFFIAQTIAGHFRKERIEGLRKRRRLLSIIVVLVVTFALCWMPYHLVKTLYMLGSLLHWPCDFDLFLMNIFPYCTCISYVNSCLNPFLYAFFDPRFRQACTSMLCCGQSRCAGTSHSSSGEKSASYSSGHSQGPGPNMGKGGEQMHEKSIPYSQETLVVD
Sequence of Glycogen synthase kinase-3 beta (P49841 whole entry): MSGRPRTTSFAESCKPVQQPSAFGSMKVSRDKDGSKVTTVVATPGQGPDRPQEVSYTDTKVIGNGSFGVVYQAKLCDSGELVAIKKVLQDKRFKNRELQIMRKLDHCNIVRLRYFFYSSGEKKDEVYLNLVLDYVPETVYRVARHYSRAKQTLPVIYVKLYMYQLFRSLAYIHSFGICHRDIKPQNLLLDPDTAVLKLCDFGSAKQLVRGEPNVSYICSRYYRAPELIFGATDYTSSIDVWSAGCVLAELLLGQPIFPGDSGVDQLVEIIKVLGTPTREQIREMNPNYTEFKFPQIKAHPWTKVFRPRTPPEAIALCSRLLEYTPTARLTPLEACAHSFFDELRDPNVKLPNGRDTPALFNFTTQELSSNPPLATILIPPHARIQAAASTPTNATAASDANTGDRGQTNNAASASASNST
Sequence of C-C chemokine receptor type 6 (P51684 whole entry): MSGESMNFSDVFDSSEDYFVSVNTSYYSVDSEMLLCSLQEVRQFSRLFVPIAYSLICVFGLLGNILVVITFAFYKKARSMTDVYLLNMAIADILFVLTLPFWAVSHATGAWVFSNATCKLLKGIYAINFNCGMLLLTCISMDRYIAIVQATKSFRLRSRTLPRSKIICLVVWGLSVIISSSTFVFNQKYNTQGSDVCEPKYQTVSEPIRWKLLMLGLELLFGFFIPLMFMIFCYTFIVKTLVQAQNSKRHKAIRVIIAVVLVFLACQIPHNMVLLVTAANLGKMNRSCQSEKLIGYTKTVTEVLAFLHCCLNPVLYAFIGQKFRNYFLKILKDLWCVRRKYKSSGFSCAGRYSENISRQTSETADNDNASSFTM

Consider `N#Cc1cccc(-c2nc(/C=C/c3ccc(F)cc3)no2)c1`, for which the IC50 (in experiment [1]; at Caspase-3; in experiment [2]; in experiment [3]) was > 99 µM (inactive) in each case.

For the molecule `O=C(c1ccc(Cl)cc1)N1CCN(c2cccnc2)CC1`, the AC50 with Candida albicans [4] was 20.4 µM (active); in the experiment with Candida albicans [5] it was 25 µM (active); in the experiment on NIH3T3, 190 µM (active); in the experiment with Candida albicans [6], 30.5 µM (active); with Candida albicans [7] it was 43.5 µM (active).

Turning to `O=C1C2C3C=CC(CO)(O3)C2C(=O)N1c1ccccc1-c1ccccc1` (stereo not given), the IC50 is > 100 µM (inactive) in experiment [8]; 11.4 µM (active) in [9]; > 66.6 µM (inactive) on Apelin receptor; 52.7 µM (inactive) in [10]; > 66.6 µM (inactive) in experiment [11].

On to `COc1cccc(C(=O)c2sc(NC(C)C)nc2N)c1`, for which the IC50 in experiment [12] is > 31 µM (not active); in experiment [17] it was 0.0182 µM (active). The AC50 was 7.12 µM (active) in [13], 0.288 µM (active) in experiment [14], 0.252 µM (active) in experiment [15] and 1.11 µM (active) in experiment [16].

For the origin of these results see ChEMBL document CHEMBL1201862, “PubChem BioAssay data set” (2004).
